According to PubChem BioAssay AID248 (DTP/NCI, 2004):
Values joined by “and” are separate entries in the source; they are usually repeats but may differ in a detail not shown here. Identical values can stand only once. Inconclusive results and toxic doses are left out. Cut-off read from the data, not from the text of the source: active = T/C of 150% or more; inactive = T/C below 125%. Peptide text beside a SMILES is read from it. * marks the point of attachment. Boc = CC(C)(C)OC(=O)*; OtBu = CC(C)(C)O*; NHNH2 = NN*

Test system: L1210 leukemia ip in BDF1 mice, survival T/C
Assay: NCI In Vivo Anticancer Drug Screen. Data for tumor model L1210 Leukemia (intraperitoneal) in B6D2F1 (BDF1) mice
Conditions: endpoint: mean survival time, higher = longer survival
Outline: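 Value reflects the ratio of survival in compound-treated mice to survival in vehicle-treated controls, with both groups carrying the same transplanted tumor.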

[1] = dose: 100.0 mg/kg/injection, schedule: Q01DX009 (ip), vehicle: saline with Tween-80
[2] = dose: 100.0 mg/kg/injection, schedule: Q04DX003 (ip), vehicle: saline with Tween-80
[3] = dose: 200.0 mg/kg/injection, schedule: Q01DX009 (ip), vehicle: saline with Tween-80
[4] = dose: 200.0 mg/kg/injection, schedule: Q04DX003 (ip), vehicle: saline with Tween-80
[5] = dose: 400.0 mg/kg/injection, schedule: Q04DX003 (ip), vehicle: saline with Tween-80
[6] = dose: 100.0 mg/kg/injection, schedule: Q01DX001 (ip), vehicle: other
[7] = dose: 200.0 mg/kg/injection, schedule: Q01DX001 (ip), vehicle: other
[8] = dose: 400.0 mg/kg/injection, schedule: Q01DX001 (ip), vehicle: other
[9] = dose: 75.0 mg/kg/injection, schedule: Q01DX001 (ip), vehicle: saline
[10] = dose: 150.0 mg/kg/injection, schedule: Q01DX001 (ip), vehicle: saline
[11] = dose: 100.0 mg/kg/injection, schedule: Q01DX009 (ip), vehicle: saline
[12] = dose: 200.0 mg/kg/injection, schedule: Q01DX009 (ip), vehicle: saline
[13] = dose: 100.0 mg/kg/injection, schedule: Q04DX003 (ip), vehicle: Klucel (hydroxypropylcellulose) (HPC)
[14] = dose: 200.0 mg/kg/injection, schedule: Q04DX003 (ip), vehicle: Klucel (hydroxypropylcellulose) (HPC)
[15] = dose: 100.0 mg/kg/injection, schedule: Q04DX002 (ip), vehicle: saline
[16] = dose: 100.0 mg/kg/injection, schedule: Q04DX003 (ip), vehicle: saline
[17] = dose: 200.0 mg/kg/injection, schedule: Q04DX003 (ip), vehicle: saline

Measured: T/C

O=C(O)c1ccc(-c2ccc(C(=O)O)cc2I)c(I)c1
inactive: [1] 92 % of control | [2] 91 % of control | [3] 87 % of control | [4] 96 % of control | [5] 94 % of control

O=C1C2CCC(C2)C1C(O)(C(F)(F)F)C(F)(F)F (configuration not stated)
inactive: dose: 25.0 mg/kg/injection, schedule: Q01DX009 (ip), vehicle: saline with Tween-80 101 % of control | dose: 50.0 mg/kg/injection, schedule: Q01DX009 (ip), vehicle: saline with Tween-80 100 % of control | dose: 50.0 mg/kg/injection, schedule: Q04DX003 (ip), vehicle: saline with Tween-80 101 % of control | [1] 91 % of control | [2] 98 % of control | [4] 91 % of control

Cc1ccc(S(=O)(=O)OCCOCCOCCOCCOCCOCCOS(=O)(=O)c2ccc(C)cc2)cc1
inactive: [6] 103 % of control | [7] 98 % of control | [8] 98 % of control

CCOC(=O)/C=C/c1nc(N)[nH]c(=O)c1CCCCc1ccccc1
inactive: dose: 50.0 mg/kg/injection, schedule: Q01DX001 (ip), vehicle: Klucel (hydroxypropylcellulose) (HPC) 122 % of control | dose: 100.0 mg/kg/injection, schedule: Q01DX001 (ip), vehicle: Klucel (hydroxypropylcellulose) (HPC) 119 % of control | dose: 200.0 mg/kg/injection, schedule: Q01DX001 (ip), vehicle: Klucel (hydroxypropylcellulose) (HPC) 111 % of control

O=CN/N=C/c1ccc(Cl)cc1Cl
inactive: [9] 95 % of control | [10] 104 % of control

CCCCc1ccncc1
inactive: dose: 5.0 mg/kg/injection, schedule: Q01DX001 (ip), vehicle: saline 102 % of control | dose: 10.0 mg/kg/injection, schedule: Q01DX001 (ip), vehicle: saline 100 % of control | dose: 20.0 mg/kg/injection, schedule: Q01DX001 (ip), vehicle: saline 100 % of control | dose: 40.0 mg/kg/injection, schedule: Q01DX001 (ip), vehicle: saline 90 % of control | dose: 80.0 mg/kg/injection, schedule: Q01DX001 (ip), vehicle: saline 93 % of control | dose: 100.0 mg/kg/injection, schedule: Q01DX001 (ip), vehicle: saline 98 % of control

CN=C(c1ccc(NC(=O)c2ccc(C(=O)Nc3ccc(C(=NC)N(C)C(C)=O)cc3)c(Cl)c2)cc1)N(C)C(C)=O
inactive: dose: 25.0 mg/kg/injection, schedule: Q01DX015 (ip), vehicle: methylcellulose (MC) 95 % of control | dose: 50.0 mg/kg/injection, schedule: Q01DX015 (ip), vehicle: methylcellulose (MC) 93 % of control | dose: 75.0 mg/kg/injection, schedule: Q01DX015 (ip), vehicle: methylcellulose (MC) 96 % of control | dose: 200.0 mg/kg/injection, schedule: Q01DX015 (ip), vehicle: methylcellulose (MC) 93 % of control

COC(=O)c1cc(N2CC2)nc(Cl)n1
inactive: dose: 25.0 mg/kg/injection, schedule: Q01DX Z (ip), vehicle: methylcellulose (MC) 101 % of control | dose: 50.0 mg/kg/injection, schedule: Q01DX Z (ip), vehicle: methylcellulose (MC) 93 % of control

NC(=O)c1cn(C2OC(CO)C(O)C2O)c2ncn3ccnc3c12 (configuration not stated)
inactive: dose: 6.25 mg/kg/injection, schedule: Q01DX005 (ip), vehicle: saline 101 % of control | dose: 12.5 mg/kg/injection, schedule: Q01DX005 (ip), vehicle: saline 106 % of control

O=C(Nc1cccc(F)c1)N(CCO)C1CCCCC1
inactive: [11] 105 % of control | [12] 113 % of control | dose: 400.0 mg/kg/injection, schedule: Q01DX009 (ip), vehicle: saline 100 % of control

CCOC(=O)c1csc(/C=C/c2ccc([N+](=O)[O-])o2)n1
inactive: [13] 89 % of control | [14] 92 % of control

CC(C)(O)CCCC1CCC2C3CCC4CCCCC4(C)C3CCC2(C)C1O (configuration not stated)
inactive: dose: 100.0 mg/kg/injection, schedule: Q04DX002 (ip), vehicle: DMSO 86 % of control | dose: 200.0 mg/kg/injection, schedule: Q04DX002 (ip), vehicle: DMSO 96 % of control | dose: 400.0 mg/kg/injection, schedule: Q04DX002 (ip), vehicle: DMSO 92 % of control

CC1=C(C(=O)O)CC(S(=O)(=O)O)C1(C)C (configuration not stated)
inactive: dose: 75.0 mg/kg/injection, schedule: Q01DX001 (ip), vehicle: acetone 96 % of control | dose: 150.0 mg/kg/injection, schedule: Q01DX001 (ip), vehicle: acetone 96 % of control | dose: 300.0 mg/kg/injection, schedule: Q01DX001 (ip), vehicle: acetone 92 % of control

CCOCc1cccc2ccccc12
inactive: [2] 106 % of control | [4] 98 % of control | [5] 102 % of control

O=S1(=O)CS(=O)(=O)CS(=O)(=O)C1
inactive: [15] 108 % of control | dose: 200.0 mg/kg/injection, schedule: Q04DX002 (ip), vehicle: saline 119 % of control | dose: 400.0 mg/kg/injection, schedule: Q04DX002 (ip), vehicle: saline 101 % of control

O=[N+]([O-])c1ccc([N+](=O)[O-])c2nsnc12
inactive: dose: 12.5 mg/kg/injection, schedule: Q04DX003 (ip), vehicle: Klucel (hydroxypropylcellulose) (HPC) 98 % of control | dose: 25.0 mg/kg/injection, schedule: Q04DX003 (ip), vehicle: Klucel (hydroxypropylcellulose) (HPC) 102 % of control

CCCCCC(C)O[Si](C)c1cccc2ccccc12 (configuration not stated)
inactive: [1] 98 % of control | [2] 92 % of control | [3] 93 % of control | [4] 92 % of control | dose: 400.0 mg/kg/injection, schedule: Q01DX009 (ip), vehicle: saline with Tween-80 104 % of control | [5] 101 % of control

CCCCCCN1CCCC(OC(=O)N(C)C)C1 (configuration not stated)
inactive: dose: 25.0 mg/kg/injection, schedule: Q04DX002 (ip), vehicle: saline 113 % of control | dose: 50.0 mg/kg/injection, schedule: Q04DX002 (ip), vehicle: saline 103 % of control | [15] 100 % of control and 104 % of control

N#CC(CCCc1cccc(N2CN=C(N)N=C2N)c1)c1ccccc1 (configuration not stated)
inactive: dose: 50.0 mg/kg/injection, schedule: Q01DX001 (ip), vehicle: saline 96 % of control

CN(C)c1ccc(S(=O)(=O)Cl)cc1[N+](=O)[O-]
inactive: [16] 104 % of control | [17] 107 % of control | dose: 400.0 mg/kg/injection, schedule: Q04DX003 (ip), vehicle: saline 101 % of control

CCCCCC[n+]1cccc(C#N)c1
inactive: dose: 18.75 mg/kg/injection, schedule: Q01DX009 (ip), vehicle: saline 95 % of control | dose: 37.5 mg/kg/injection, schedule: Q01DX009 (ip), vehicle: saline 95 % of control | [9] 113 % of control | dose: 75.0 mg/kg/injection, schedule: Q01DX009 (ip), vehicle: saline 94 % of control | dose: 75.0 mg/kg/injection, schedule: Q04DX003 (ip), vehicle: saline 97 % of control | [10] 95 % of control | dose: 150.0 mg/kg/injection, schedule: Q04DX003 (ip), vehicle: saline 101 % of control | dose: 300.0 mg/kg/injection, schedule: Q01DX001 (ip), vehicle: saline 100 % of control

CN(C)P1(=O)OCCN1N (configuration not stated)
inactive: dose: 50.0 mg/kg/injection, schedule: Q01DX009 (ip), vehicle: saline 105 % of control | [11] 117 % of control | [16] 104 % of control | [12] 103 % of control | [17] 96 % of control

CO/C=C(\C)C(=O)NC(=O)NC1CCC(CO)C1 (configuration not stated)
inactive: [6] 96 % of control | [7] 107 % of control | [8] 98 % of control

CCC(C)C(NC(=O)CNC(=O)OC(C)(C)C)C(=O)NC(C(=O)NC(CCC(=O)OC(C)(C)C)C(=O)NN)C(C)C (configuration not stated) (Boc-GIVE(OtBu)-NHNH2; configuration not given here)
inactive: dose: 75.0 mg/kg/injection, schedule: Q01DX001 (ip), vehicle: saline sonified 100 % of control | dose: 150.0 mg/kg/injection, schedule: Q01DX001 (ip), vehicle: saline sonified 92 % of control | dose: 300.0 mg/kg/injection, schedule: Q01DX001 (ip), vehicle: saline sonified 106 % of control

COC(=O)c1ccc2cc(C(=O)OC)ccc2c1
inactive: dose: 50.0 mg/kg/injection, schedule: Q04DX003 (ip), vehicle: Klucel (hydroxypropylcellulose) (HPC) 105 % of control | [13] 105 % of control | [14] 101 % of control
